Patent US20230203098A1, “HUMAN TRANSFERRIN RECEPTOR BINDING PEPTIDE” (priority 2020, published 2023)
Where two headings read alike, the source gives them in different places. Each block holds one compound with its values, some of them ahead of it. Where a SMILES comes first, the peptide text is derived from it. Bridges are numbered along the chain shown (N, C = ends). [ ]: non-standard residue; d: D form. NMePhe(3-Cl) = CN[C@@H](Cc1cccc(Cl)c1)C(=O)O; NMeW = CN[C@@H](Cc1c[nH]c2ccccc12)C(=O)O; NMeY = CN[C@@H](Cc1ccc(O)cc1)C(=O)O; PEG4 = NCCOCCOCCOCCOCCC(=O)O; Aib = CC(C)(N)C(=O)O

Target: transferrin receptor (hTfR) (Homo sapiens, UniProt P02786)
Sequence (P02786 whole entry): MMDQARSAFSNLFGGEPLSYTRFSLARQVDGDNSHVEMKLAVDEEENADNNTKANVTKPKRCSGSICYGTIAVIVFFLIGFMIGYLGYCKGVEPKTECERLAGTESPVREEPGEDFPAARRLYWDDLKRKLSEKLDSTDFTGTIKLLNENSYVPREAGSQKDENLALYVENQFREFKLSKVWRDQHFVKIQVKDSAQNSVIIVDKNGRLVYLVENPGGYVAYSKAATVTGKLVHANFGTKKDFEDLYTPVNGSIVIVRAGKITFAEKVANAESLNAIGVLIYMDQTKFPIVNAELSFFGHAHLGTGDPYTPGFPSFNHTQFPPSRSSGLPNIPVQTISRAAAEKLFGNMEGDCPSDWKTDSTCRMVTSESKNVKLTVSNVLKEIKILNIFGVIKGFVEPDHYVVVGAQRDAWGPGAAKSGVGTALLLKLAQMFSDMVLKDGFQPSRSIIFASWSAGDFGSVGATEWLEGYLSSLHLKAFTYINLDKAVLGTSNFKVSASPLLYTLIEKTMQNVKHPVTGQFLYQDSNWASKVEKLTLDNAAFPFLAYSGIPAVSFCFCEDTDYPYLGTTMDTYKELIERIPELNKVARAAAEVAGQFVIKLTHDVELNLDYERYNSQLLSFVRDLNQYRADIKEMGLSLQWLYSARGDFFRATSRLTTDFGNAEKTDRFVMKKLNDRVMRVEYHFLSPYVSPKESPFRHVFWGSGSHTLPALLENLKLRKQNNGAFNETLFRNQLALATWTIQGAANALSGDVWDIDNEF
Assay: Intermolecular interaction evaluation test between transferrin receptor (hTfR) and peptide by surface plasmon resonance (SPR)
Format: binding
Outline: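 Receptor was Ni-captured and EDC/NHS-fixed on an NTA chip; running buffer HEPES pH 8.0 with NaCl, Tween 20, BSA and 1.0% DMSO.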

[1] = surface plasmon resonance, peptide vs hTfR, read-out: KD value, hTfR binding by SPR (class symbol)
[2] = surface plasmon resonance, hTfR, read-out: KD value for hTfR by SPR (class symbol)
[3] = surface plasmon resonance, peptide vs hTfR, read-out: KD value for hTfR by SPR (class symbol)
[4] = binding to hTfR by SPR, Table 2 peptides, read-out: KD value (SPR) class

Structure (SMILES): CC[C@H](C)[C@@H]1NC(=O)[C@H](Cc2ccc(OC)cc2)NC(=O)[C@H](Cc2ccc(O)cc2)NC(=O)[C@H](CC(N)=O)NC(=O)[C@H](Cc2c[nH]c3ccccc23)N(C)C(=O)[C@H](C(C)C)NC(=O)[C@H](Cc2cccc(Cl)c2)N(C)C(=O)[C@H](C(C)C)NC(=O)[C@H](C)NC(=O)CSC[C@@H](C(=O)NCC(=O)NCC(=O)NCC(=O)NCC(=O)N[C@@H](CO)C(=O)N[C@@H](CO)C(=O)N[C@@H](CS)C(N)=O)NC(=O)[C@H](Cc2ccc(O)cc2)N(C)C(=O)[C@H](Cc2ccccc2)NC(=O)[C@@H](CCCNC(=N)N)NC(=O)[C@H](CCC(=O)O)NC(=O)[C@H]([C@@H](C)CC)NC1=O [compound 348]
Kd [1]: 100 to 1000 nM

Structure (SMILES): CC[C@H](C)[C@@H]1NC(=O)[C@H](Cc2ccc(O)cc2)NC(=O)[C@H](Cc2ccc(O)cc2)NC(=O)[C@H](CC(N)=O)NC(=O)[C@H](Cc2c[nH]c3ccccc23)NC(=O)[C@H](C(C)C)NC(=O)[C@H](Cc2ccccc2)NC(=O)[C@H](C(C)C)NC(=O)[C@H](C)NC(=O)CSC[C@@H](C(=O)NCCOCCOCCOCCOCCC(=O)N[C@@H](CNC(=O)c2ccc(-c3c4ccc(=O)cc-4oc4cc(O)ccc34)c(C(=O)O)c2)C(N)=O)NC(=O)[C@H](Cc2ccc(O)cc2)N(C)C(=O)[C@H](Cc2ccc(O)cc2)NC(=O)[C@H](CCCNC(=N)N)NC(=O)[C@H](CCCNC(=N)N)N(C)C(=O)[C@H]([C@@H](C)CC)NC1=O [compound 164]
Kd (SPR, linker and payload (FITC, VivoTag) conjugates, read-out: KD): 1 to 100 nM

Structure (SMILES): CC[C@H](C)[C@@H]1NC(=O)[C@H](Cc2ccc(OC)cc2)NC(=O)[C@H](Cc2ccc(O)cc2)NC(=O)[C@H](CC(N)=O)NC(=O)[C@H](Cc2c[nH]c3ccccc23)N(C)C(=O)[C@H](C(C)C)NC(=O)[C@H](Cc2cccc(Cl)c2)N(C)C(=O)[C@H](C(C)C)NC(=O)[C@H](C)NC(=O)CSC[C@@H](C(N)=O)NC(=O)[C@H](Cc2ccc(O)cc2)N(C)C(=O)[C@H](CCC(=O)N[C@H](CCC(=O)O)C(=O)O)NC(=O)[C@@H](CCCNC(=N)N)NC(=O)[C@H](CCCNC(=N)N)NC(=O)[C@H]([C@@H](C)CC)NC1=O [compound 391]
Kd [2]: 1 to 100 nM

Structure (SMILES): CC[C@H](C)[C@@H]1NC(=O)[C@H](Cc2ccc(O)cc2)NC(=O)[C@H](Cc2ccc(O)cc2)NC(=O)[C@H](CC(N)=O)NC(=O)[C@H](Cc2c[nH]c3ccccc23)NC(=O)[C@H](C(C)C)NC(=O)[C@H](Cc2ccccc2)N(C)C(=O)[C@H](C(C)C)NC(=O)[C@H](C)NC(=O)CSC[C@@H](C(=O)NCC(=O)NCC(=O)NCC(=O)NCC(=O)N[C@@H](CO)C(=O)N[C@@H](CO)C(=O)N[C@@H](CSCC(=O)NC)C(N)=O)NC(=O)[C@H](Cc2ccc(O)cc2)N(C)C(=O)[C@H](Cc2ccc(O)cc2)NC(=O)[C@H](CCCNC(=N)N)NC(=O)[C@H](CCCNC(=N)N)NC(=O)[C@H]([C@@H](C)CC)NC1=O [compound 443]
Kd [3]: 1 to 100 nM

Structure (SMILES): CC[C@H](C)[C@@H]1NC(=O)[C@H](Cc2ccc(O)cc2)NC(=O)[C@H](Cc2ccc(O)cc2)NC(=O)[C@H](CC(N)=O)NC(=O)[C@H](Cc2c[nH]c3ccccc23)NC(=O)[C@H](C(C)C)NC(=O)[C@H](Cc2ccccc2)NC(=O)[C@H](C(C)C)NC(=O)[C@H](C)NC(=O)CSC[C@@H](C(N)=O)NC(=O)[C@H](Cc2ccc(O)cc2)N(C)C(=O)[C@H](CCC(=O)O)NC(=O)[C@H](CCCNC(=N)N)NC(=O)[C@H](CCCNC(=N)N)NC(=O)[C@H]([C@@H](C)CC)NC1=O [compound 259]
Kd [4]: 1 to 100 nM

Structure (SMILES): CC[C@H](C)[C@@H]1NC(=O)[C@H](Cc2ccc(O)cc2)NC(=O)[C@H](Cc2ccc(O)cc2)NC(=O)[C@H](CC(N)=O)NC(=O)[C@H](Cc2c[nH]c3ccccc23)NC(=O)[C@H](C(C)C)NC(=O)[C@H](Cc2ccccc2)N(C)C(=O)[C@H](C(C)C)NC(=O)[C@H](C)NC(=O)CSC[C@@H](C(=O)N[C@@H](CCCCNC(=O)C2CCC(CN3C(=O)C=CC3=O)CC2)C(N)=O)NC(=O)[C@H](Cc2ccc(O)cc2)N(C)C(=O)[C@H](Cc2ccc(O)cc2)NC(=O)[C@H](CCCNC(=N)N)NC(=O)[C@H](CCCNC(=N)N)NC(=O)[C@H]([C@@H](C)CC)NC1=O (some centres unmarked) [compound 186]
Kd (hTfR binding by SPR, hTfR No. 894 variant peptides, linker-added peptides and payload conjugates (Table 2), read-out: KD value obtained from the SPR measurement): 1 to 100 nM

Structure (SMILES): CC[C@H](C)[C@@H]1NC(=O)[C@H](Cc2ccc(OC)cc2)NC(=O)[C@H](Cc2ccc(O)cc2)NC(=O)[C@H](CC(N)=O)NC(=O)[C@H](Cc2c[nH]c3ccccc23)N(C)C(=O)[C@H](C(C)C)NC(=O)[C@H](Cc2cccc(Cl)c2)N(C)C(=O)[C@H](CCC(=O)O)NC(=O)[C@H](C)NC(=O)CSC[C@@H](C(=O)N[C@H](CCC(=O)O)C(=O)NCC(=O)NCC(=O)NCC(=O)N[C@@H](CO)C(=O)N[C@@H](CO)C(=O)N[C@@H](CS)C(N)=O)NC(=O)[C@H](Cc2ccc(O)cc2)N(C)C(=O)[C@H](Cc2ccccc2)NC(=O)[C@@H](CCCNC(=N)N)NC(=O)[C@H](CCCCN)NC(=O)[C@H]([C@@H](C)CC)NC1=O [compound 230] ({CH2CO}-AE[NMePhe(3-Cl)]V[NMeW]NYY(Me)IIK[dR]F[NMeY]C[dE]GGGSSC-NH2; thioether N-15)
Kd (SPR, peptides, linker-added peptides and FITC conjugates, Patent ID 203-230, read-out: KD): 1 to 100 nM

Structure (SMILES): CC[C@H](C)[C@@H]1NC(=O)[C@H](Cc2ccc(O)cc2)NC(=O)[C@H](Cc2ccc(O)cc2)NC(=O)[C@H](CC(N)=O)NC(=O)[C@H](Cc2c[nH]c3ccccc23)NC(=O)[C@H](C(C)C)NC(=O)[C@H](Cc2ccccc2)N(C)C(=O)[C@H](C(C)C)NC(=O)[C@H](C)NC(=O)CSC[C@@H](C(=O)NCCOCCOCCOCCOCCOCCOCCOCCOCCOCCOCCOCCOCCC(N)=O)NC(=O)[C@H](Cc2ccc(O)cc2)N(C)C(=O)[C@H](Cc2ccc(O)cc2)NC(=O)[C@H](CCCNC(=N)N)NC(=O)[C@H](CCCNC(=N)N)NC(=O)[C@H]([C@@H](C)CC)NC1=O [compound 420]
Kd [3]: 1 to 100 nM

Structure (SMILES): CC[C@H](C)[C@@H]1NC(=O)[C@H](Cc2ccc(O)cc2)NC(=O)[C@H](Cc2ccc(O)cc2)NC(=O)[C@H](CC(N)=O)NC(=O)[C@H](Cc2c[nH]c3ccccc23)NC(=O)[C@H](C(C)C)NC(=O)[C@H](Cc2ccccc2)NC(=O)[C@H](C(C)C)NC(=O)[C@H](C)NC(=O)CSC[C@@H](C(N)=O)NC(=O)[C@H](Cc2ccc(O)cc2)N(C)C(=O)[C@H](Cc2ccc(O)cc2)NC(=O)[C@H](CCCNC(=N)N)NC(=O)[C@H](CCCNC(=N)N)NC(=O)[C@H](CCCNC(=N)N)NC1=O [compound 248]
Kd [4]: 1 to 100 nM

Continued, values first:

Kd (SPR, hTfR, class symbols A-D, read-out: KD (column without head, continuation of the table series)): 100 to 1000 nM
Structure (SMILES): CC[C@H](C)[C@@H]1NC(=O)[C@H](Cc2ccc(O)cc2)NC(=O)[C@H](Cc2ccc(O)cc2)NC(=O)[C@H](CC(N)=O)NC(=O)[C@H](Cc2c[nH]c3ccc(Cl)cc23)NC(=O)[C@H](C(C)C)NC(=O)[C@H](Cc2ccc(F)cc2)N(C)C(=O)[C@H](C(C)C)NC(=O)[C@H](C)NC(=O)CSC[C@@H](C(N)=O)NC(=O)[C@H](Cc2ccc(O)cc2)N(C)C(=O)[C@H](Cc2ccccc2)NC(=O)[C@H](CCCCNC(=O)CCOCCOCCOCCOC)NC(=O)[C@H](CCCNC(=N)N)N(C)C(=O)[C@H]([C@@H](C)CC)NC1=O [compound 489]

Kd [1]: > 1000 nM
Structure (SMILES): CC[C@H](C)[C@@H]1NC(=O)[C@H](Cc2ccc(OC)cc2)NC(=O)[C@H](Cc2ccc(O)cc2)NC(=O)[C@H](CC(N)=O)NC(=O)[C@H](Cc2c[nH]c3ccccc23)NC(=O)[C@H](C(C)C)NC(=O)[C@H](Cc2cccc(Cl)c2)N(C)C(=O)[C@H](C(C)C)NC(=O)[C@H](C)NC(=O)CSC[C@@H](C(=O)NCCOCCOCCOCCOCCC(N)=O)NC(=O)[C@H](Cc2ccc(O)cc2)N(C)C(=O)[C@H](Cc2ccccc2)NC(=O)[C@@H](CCCNC(=N)N)NC(=O)C(C)(C)NC(=O)[C@H]([C@@H](C)CC)NC1=O [compound 310] ({CH2CO}-AV[NMePhe(3-Cl)]VWNYY(Me)II[Aib][dR]F[NMeY]C[PEG4]-NH2; thioether N-15)

Kd [2]: 1 to 100 nM
Structure (SMILES): CC[C@H](C)[C@@H]1NC(=O)[C@H](Cc2ccc(OC)cc2)NC(=O)[C@H](Cc2ccc(O)cc2)NC(=O)[C@H](CC(N)=O)NC(=O)[C@H](Cc2c[nH]c3ccccc23)N(C)C(=O)[C@H](C(C)C)NC(=O)[C@H](Cc2cccc(Cl)c2)N(C)C(=O)[C@H](C(C)C)NC(=O)[C@H](C)NC(=O)CSC[C@@H](C(=O)NCCOCCOCCOCCOCCC(N)=O)NC(=O)[C@H](Cc2ccc(O)cc2)N(C)C(=O)[C@H](Cc2ccccc2)NC(=O)[C@@H](CCCNC(=N)N)NC(=O)[C@H](CCCCN)NC(=O)[C@H]([C@@H](C)CC)NC1=O [compound 374] ({CH2CO}-AV[NMePhe(3-Cl)]V[NMeW]NYY(Me)IIK[dR]F[NMeY]C[PEG4]-NH2; thioether N-15)

Kd [2]: 1 to 100 nM
Structure (SMILES): CC[C@H](C)[C@@H]1NC(=O)[C@H](Cc2ccc(OC)cc2)NC(=O)[C@H](Cc2ccc(O)cc2)NC(=O)[C@H](CC(N)=O)NC(=O)[C@H](Cc2c[nH]c3ccccc23)N(C)C(=O)[C@H](C(C)C)NC(=O)[C@H](Cc2cccc(Cl)c2)N(C)C(=O)[C@H](C(C)C)NC(=O)[C@H](C)NC(=O)CSC[C@@H](C(N)=O)NC(=O)[C@H](Cc2ccc(O)cc2)N(C)C(=O)[C@H](Cc2ccccc2)NC(=O)[C@H](CCC(=O)N[C@H](CCC(=O)O)C(=O)O)NC(=O)[C@H](CCCNC(=N)N)NC(=O)[C@H]([C@@H](C)CC)NC1=O [compound 385]

Kd [2]: < 1 nM
Structure (SMILES): CC[C@H](C)[C@@H]1NC(=O)[C@H](Cc2ccc(OC)cc2)NC(=O)[C@H](Cc2ccc(O)cc2)NC(=O)[C@H](CC(N)=O)NC(=O)[C@H](Cc2c[nH]c3ccccc23)N(C)C(=O)[C@H](C(C)C)NC(=O)[C@H](Cc2cccc(Cl)c2)N(C)C(=O)[C@H](C(C)C)NC(=O)[C@H](C)NC(=O)CSC[C@@H](C(N)=O)NC(=O)[C@H](Cc2ccc(O)cc2)N(C)C(=O)[C@H](Cc2ccccc2)NC(=O)[C@H](CCC(=O)NCCOCCOCCOCCOCCOCCOCCOCCOC)NC(=O)[C@H](CCCNC(=N)N)NC(=O)[C@H]([C@@H](C)CC)NC1=O [compound 384]
